The text below walks through data of paper PMC7024310, “Pyrenosetins A–C, New Decalinoylspirotetramic Acid Derivatives Isolated by Bioactivity-Based Molecular Networking from the Seaweed-Derived Fungus Pyrenochaetopsis sp. FVE-001” (Marine Drugs, 2020).

Assay [1] concerns Plasmodium falciparum 3D7. Also on record: method as in PMID 28901329. The conditions noted are these: cited from earlier work.
For a further assay, the system named is cancer cell lines. Further details: method as in PMID 28901329. The conditions noted are these: cited from earlier work.
For assay [2], the system named is human malignant melanoma cell line A-375. Kind of assay: CellTiterBlue cell viability assay, malignant melanoma cell line A-375. In kind it is cell-based. The conditions noted are these: for IC50: Homo sapiens, A-375 cells, 24 h treatment, CellTiterBlue, read-out: IC50 against A-375 cells. The protocol: (§1) The crude extracts were initially tested in vitro against 5 human cancer cell lines: colorectal adenocarcinoma cell line HT-29 (DSMZ, Braunschweig, Germany), malignant melanoma cell line A-375 (CLS, Eppelheim, Germany), colon cancer cell line HCT-116 (DSMZ), lung carcinoma cell line A-549 (CLS, Eppelheim, Germany), human breast cancer line MB-231 (CLS), and the non-cancerous human keratinocyte line HaCaT (CLS) at a concentration of 100 µg/mL. The antitumoral activity of the crude extracts was evaluated by monitoring the metabolic activity using the CellTiterBlue Cell Viability Assay (Promega, Mannheim, Germany). HT-29 and HaCaT cells were cultivated in RPMI medium, A-549 and MB-231 cells in DMEM: Ham’s F12 medium (1:1) supplemented with 15 mM HEPES and A-375 and HCT-116 cells in DMEM medium supplemented with 4.5 g/L D-Glucose and 110 mg/L sodium pyruvate. All media were supplemented with L-Glutamine, 10% fetal bovine serum, 100 U/mL penicillin, and […] streptomycin. The cultures were maintained at 37 °C under a humidified atmosphere and 5% CO2. The cell lines were transferred every 3 or 4 days. For experimental procedure, the cells were seeded in 96 well plates at a concentration of 10,000 cells per well. A stock solution of 40 mg/mL in DMSO was prepared of each extract. After 24 h incubation, the medium was removed from the cells and 100 µL fresh medium containing the test samples was added. Each sample was prepared in duplicate once. Doxorubicin as a standard therapeutic drug was used as positive control, 0.5% DMSO and growth media were used as controls. Following compound addition, plates were cultured at 37 °C for 24 h. Afterwards, the assay was performed according to the manufacturer’s instructions and measured using the microplate reader Tecan Infinite M200 at excitation 560 nm and emission of 590 nm. For determination of IC50 values, a dilution series of the extracts was prepared and tested, as described before for the crude extract.

Assay [3] concerns non-cancerous human keratinocyte cell line HaCaT. Kind of assay: CellTiterBlue cell viability assay, non-cancerous keratinocyte line HaCaT (general toxicity). In kind it is cell-based. The conditions noted are these: HaCaT cells, 24 h treatment, read-out: IC50 against HaCaT cells. The protocol: as §1
On the technique in general: Resazurin is reduced to fluorescent resorufin, in cell work by metabolically active cells.

Regarding wakodecaline A, the antimalarial activity result in assay [1] is listed as “moderate antimalarial activity”. Moreover, the “activity against cancer cell lines” value with cancer cell lines is “inactive”.
For the compound `CC(=O)/C=C/[C@@H]1[C@H]2C(C)=C[C@H]3C[C@@H](C)CC[C@@H]3[C@@]2(C)C(=O)[C@@]12C(=O)[C@@H](CO)N(C)C2=O` [Compound 3, Pyrenosetin C], the IC50 (usually the midpoint of a concentration-inhibition curve) amounted to 140 µM in assay [2] and 143 µM in assay [3].
With `COc1cccc2c1C(=O)c1c(O)c3c(c(O)c1C2=O)C[C@@](O)(C(=O)CO)C[C@@H]3O[C@H]1C[C@H](N)[C@H](O)[C@H](C)O1` [Doxorubicin, reference compound], the concentration for half-maximal inhibition (IC50) came to 0.6 µM in assay [2] and 22.1 µM in assay [3].
On the same counts, the results for `CC1=CC2CC(C)CCC2C2(C)C(=O)C3(C(=O)C(CO)N(C)C3=O)C(C=CC(C)O)C12` (stereo not drawn) [Compound 1, Pyrenosetin A] are 2.8 µM and 4.2 µM.
For `C/C=C/C=C/[C@H]1C(C)=C[C@H]2C[C@@H](C)CC[C@@H]2[C@@]1(C)/C(O)=C1/C(=O)[C@@H](CO)N(C)C1=O` [Compound 4, Phomasetin], in that order: 37.3 µM and 45 µM.
Take `CC(=O)/C=C/[C@H]1[C@H](C(=O)N(C)[C@H](CO)C(=O)O)C(=O)[C@@]2(C)[C@@H]1C(C)=C[C@H]1C[C@@H](C)CC[C@@H]12` [wakodecaline B]: the antimalarial activity result in assay [1] is reported as “moderate antimalarial activity”. Also, the “activity against cancer cell lines” value with cancer cell lines was “inactive”.
As to `CC1=C[C@H]2C[C@@H](C)CC[C@@H]2[C@@]2(C)C(=O)[C@@]3(C(=O)[C@@H](CO)N(C)C3=O)[C@H](/C=C/[C@@H](C)O)[C@@H]12` [Compound 2, Pyrenosetin B], the “selectivity index (IC50 value against HaCaT cells / IC50 value against A-375 cells)” value in assay [2] (HaCaT vs A-375) is on record as “around 5.6”. For the same compound, the IC50 in assay [2] was determined as 6.3 µM; in assay [3], 35 µM.
